Patent US8501911B2, “Methods of reducing inflammation and mucus hypersecretion” (Biomarck Pharmaceuticals, Ltd, priority 1999, dated 2013)
Residues, ends and D or L forms follow the SMILES beside them. *: point of attachment. Myristoyl = CCCCCCCCCCCCCC(=O)*

Assays:
NHBE cells = test: PMA+8-Br-cGMP-induced mucin secretion from NHBE cells (ELISA); type: cell-based, human; conditions: pre- and co-incubation with 100 nM PMA+1 μM 8-Br-cGMP (Results-M-1A/M-3A)
Experimental: Peptide Blocking Studies—NHBE cells were preincubated with either the MANS or the RNS peptide (1-100 μM) for 15 min, and then PMA (100 nM)+8-Br-cGMP (1 μM) or UTP (100 μM) was added, and cells were incubated for an additional 15 min or 2 h. respectively. Mucin secretion was measured by ELISA and experimental results are designated as Results-I-2B-1 and Results-I-2B-2, as follows. […]
Measurement of Mucin Secretion by ELISA—Before collection of “base line” and “test” mucin samples, the accumulated mucus at the apical surface of the cells was removed by washing with phosphate-buffered saline, pH 7.2. To collect the base-line secretion, cells were incubated with medium alone, and secreted mucin in the apical medium was collected and reserved. Cells were rested for 24 h and then exposed to medium containing the selected stimulatory and/or inhibitory reagents (or appropriate controls), after which secreted mucin was collected and reserved as the test sample. Incubation times for the base line and the test were the same but varied depending on the test reagent utilized. Both base line and test secretions were analyzed by ELISA using an antibody capture method as known in the art. See, e.g., Harlow et al., Antibodies: A Laboratory Manual, pp. 570-573, Cold Spring Harbor Laboratory, Cold Spring Harbor, N.Y. (1988). The primary antibody for this assay was 17Q2 (Babco, Richmond, Calif.), a monoclonal antibody that reacts specifically with a carbohydrate epitope on human airway mucins. The ratio of test/base-line mucin, which is similar to a “secretory index”, was used to quantify mucin secretion, allowing each culture dish to serve as its own control and thus, minimizing deviation caused by variability among culture wells. Wright et al., Am. J. Physiol. 271, L854-L861 (1996). Levels of mucin secretion were reported as percentage of the medium control.
MARCKS-related Peptides—Both the myristoylated N-terminal sequence (MANS) and the random N-terminal sequence (RNS) peptides were synthesized at Genemed Synthesis, Inc. (San Francisco, Calif.), then purified by high pressure liquid chromatography (>95% pure), and confirmed by mass spectroscopy with each showing one single peak with an appropriate molecular mass. The MANS peptide consisted of sequence identical to the first 24 amino acids of MARCKS, i.e. the myristoylated N-terminal region that mediates MARCKS insertion into membranes, MA-[…] (SEQ ID NO: 1) (where MA=N-terminal myristate chain). The corresponding control peptide (RNS) contained the same amino acid composition as the MANS but arranged in random order, MA-[…] (SEQ ID NO: 26). The presence of the hydrophobic myristate moiety in these synthetic peptides enhances their permeability to the plasma membranes, enabling the peptides to be taken up readily by cells. To determine the effects of these peptides on mucin secretion, cells were preincubated with the peptides for 15 min prior to addition of secretagogues, and mucin secretion was then measured by ELISA.
Antisense Oligonucleotides—MARCKS antisense oligonucleotide and its corresponding control oligonucleotide were synthesized at Biognostik GmbH (Gottingen, Germany). NHBE cells were treated with 5 μM antisense or control oligonucleotide apically for 3 days (in the presence of 2 μg/ml lipofectin for the first 24 h). Cells were then incubated with secretagogues, and mucin secretion was measured by ELISA. Total RNA and protein were isolated from treated cells. MARCKS mRNA was assessed by Northern hybridization according to conventional procedures using human MARCKS cDNA as a probe. MARCKS protein level was determined by Western blot using purified anti-MARCKS IgG1 (clone 2F12) as the primary detection antibody.
The effect on mucus secretion of a myristoylated peptide containing the first 24 amino acids of the human MARCKS protein (MANS; myristoylated N-terminal sequence; SEQ ID NO: ) was tested. Cultured normal human bronchial epithelial cells as described above were used. […]

[1] = tested on: human bronchial epithelial cells; test: Basal (constitutive) mucin secretion by human bronchial epithelial cells; type: cell-based; conditions: one hour incubation
Experimental: Mucus secreted from the airway epithelial cells in vitro after stimulation by activators was assessed using an ELISA (antibody capture method) (E. Harlow, D. Lane. “Antibodies: A Laboratory Manual.” New York: Cold Spring Harbor Laboratory Press, 1988), wherein the collected mucus is bound directly to the ELISA plate. Mucus was detected using an antibody raised against monkey airway mucus (Lin et al. Am J Respir Cell Mol Biol 1:41, 1989).
The MANS peptide (100 μM) was also found to decrease constitutive (basal) mucus secretion by one hour incubation. Cells were treated as described above except that no PMA or 8-Br-cGMP was used. […] Results, designated as Results-M-1B, are presented as follows and show the inhibition of basal mucin secretion by human bronchial epithelial cells exposed to the MANS peptide (SEQ ID NO: 1) or a negative control peptide consisting of the same amino acids as the MANS peptide, but in random order (RNS peptide; random N-terminal sequence (SEQ ID NO: 26):
The effect of MA-PSD peptide (1, 10 and 100 μM) on basal mucin secretion was also measured. Cells as described above were incubated for one hour with the MA-PSD peptide (no PMA or 8-Br-cGMP).

[2] = target: T1, cGMP-dependent protein kinase (PKG) (Homo sapiens, UniProt Q13976); test: PKG activity in NHBE cells; type: cell-based; conditions: 100 μM
T1 construct: endogenous in cells; host or cells: NHBE cells
T1 sequence (Q13976 1-671): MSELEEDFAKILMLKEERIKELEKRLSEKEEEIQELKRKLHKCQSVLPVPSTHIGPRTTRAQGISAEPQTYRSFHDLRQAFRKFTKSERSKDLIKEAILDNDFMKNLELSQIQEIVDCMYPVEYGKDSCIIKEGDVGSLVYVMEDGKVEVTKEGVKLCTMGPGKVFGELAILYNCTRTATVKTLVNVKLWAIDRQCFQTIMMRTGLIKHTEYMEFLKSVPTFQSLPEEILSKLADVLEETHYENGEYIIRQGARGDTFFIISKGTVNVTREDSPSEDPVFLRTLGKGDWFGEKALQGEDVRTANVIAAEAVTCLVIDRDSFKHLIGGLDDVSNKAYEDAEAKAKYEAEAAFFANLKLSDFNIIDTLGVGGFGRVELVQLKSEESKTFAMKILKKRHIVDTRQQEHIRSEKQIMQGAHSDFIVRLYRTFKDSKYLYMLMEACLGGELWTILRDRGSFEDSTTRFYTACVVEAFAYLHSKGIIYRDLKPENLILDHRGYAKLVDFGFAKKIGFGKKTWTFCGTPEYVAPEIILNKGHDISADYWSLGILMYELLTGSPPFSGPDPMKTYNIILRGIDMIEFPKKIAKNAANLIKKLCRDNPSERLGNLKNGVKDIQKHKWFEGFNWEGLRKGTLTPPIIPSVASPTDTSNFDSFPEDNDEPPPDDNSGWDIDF
Experimental: Phosphorylation of MARCKS by PMA was attenuated by Calphostin C (500 nM). NHBE cells also contained substantial amounts of cGMP-dependent protein kinase type 1α (PKG-1α) activity, which was localized to the cytosolic fraction. […] In addition, the phosphorylation of MARCKS induced by PMA was reversed by incubation with 8-Br-cGMP (10 μM).

Row | SMILES | Mucin secretion level relative to media control (NHBE cells; peptide 1 μM) [%] | Mucin secretion level relative to media control (NHBE cells; peptide 10 μM) [%] | Mucin secretion level relative to media control (NHBE cells; peptide 100 μM) [%] | Basal mucin secretion level relative to control ([1]; peptide 1 μM) [%] | Basal mucin secretion level relative to control ([1]; peptide 10 μM) [%] | Basal mucin secretion level relative to control ([1]; peptide 100 μM, no PMA or 8-Br-cGMP) [%] | PKG activity [2]
1 | CCCCCCCCCCCCCC(=O)N[C@@H](CCCCN)C(=O)N[C@@H](CCCCN)C(=O)N[C@@H](CCCCN)C(=O)N[C@@H](CCCCN)C(=O)N[C@@H](CCCCN)C(=O)N[C@@H](CCCNC(=N)N)C(=O)N[C@@H](Cc1ccccc1)C(=O)N[C@@H](CO)C(=O)N[C@@H](Cc1ccccc1)C(=O)N[C@@H](CCCCN)C(=O)N[C@@H](CCCCN)C(=O)N[C@@H](CO)C(=O)N[C@@H](Cc1ccccc1)C(=O)N[C@@H](CCCCN)C(=O)N[C@@H](CC(C)C)C(=O)N[C@@H](CO)C(=O)NCC(=O)N[C@@H](Cc1ccccc1)C(=O)N[C@@H](CO)C(=O)N[C@@H](Cc1ccccc1)C(=O)N[C@@H](CCCCN)C(=O)N[C@@H](CCCCN)C(=O)N[C@@H](CC(N)=O)C(=O)N[C@@H](CCCCN)C(=O)N[C@@H](CCCCN)C(=O)O [MA-PSD peptide] (Myristoyl-KKKKKRFSFKKSFKLSGFSFKKNKK-OH; C-terminus assumed) | 226 | 316 | 191 | 102 | 91 | 285 | –
2 | CCCC(=O)Nc1nc2c(ncn2[C@@H]2O[C@@H]3COP(=O)(O)O[C@H]3[C@H]2OC(=O)CCC)c(=O)[nH]1 [dibutryl cGMP] | – | – | – | – | – | – | increased
